We go through 21 compounds from patent EP0175304A2 (LABORATORI BALDACCI Spa, priority 1984, dated 1986).

A word on the LD50: it is the dose at which mortality reaches 50%.

Each structure is given as a SMILES string. Where two headings read alike, the source gives them in different places.

The test system of one data set is growing Swiss mouse. The data set can be described thus: acute toxicity (LD50 and toxic symptomatology), intraperitoneal administration. It counts as in vivo. The following applies: ip. The method, then:
(§1) The compounds of the invention were tested to evaluate their antiinflammatory, analgesic, antipyretic, platelet aggregation inhibition and cytostatic pharmacological effects. At the same time acute toxicity tests were made in the mouse with evaluation of LD 50 and of the symptomatology resulting from the treatment.
(§2) LD 50 and toxic symptomatology resulting from the treatment were evaluated in the growing Swiss mouse by intraperitoneal administration of the different compounds. The period of observation was extended for 10 days after administration and the value of the lethal dose was calculated by graphic interpolation of the number of deaths.
(§3) In Table II are given acute toxicity data (LD50 calculated with the graphic method) obtained in the mouse after intraperitoneal administration of the various compounds and the symptomatological observations attributable to the treatment.

Test in data set [1]: as above
It counts as in vivo. As to conditions: in vivo, mouse, ip, 10 days observation, graphic interpolation; for LD50 at 10 days: Swiss. The method, then: as §1, §2, §3

The test system of a further data set is Fibrosarcoma 3T3-B77. The data set can be described thus: cytostatic action on fibrosarcoma cell line. It counts as cell-based. The following applies: compounds added in vitro in different concentrations. The method, then:
(§4) Cytostatic action was tested on cellular lines of Fibrosarcoma 3T3-B77 obtained by conversion of 3T3 Bald/C fibroblasts by Bratislava 77 strain RSV virus and on MELANOMA B16-Fl cells.
(§5) The influence of cellular proliferation induced by the addition in vitro of the compounds in different concentrations was evaluated.

The next data set concerns MELANOMA B16-Fl cells. The data set can be described thus: cytostatic action on melanoma cells. In kind it is cell-based. As to conditions: compounds added in vitro in different concentrations. The method, then:
as §4, §5

Data set [2] deals with growing male Wistar rat. Nature of the data set: antipyretic action, beer yeast-induced hyperthermia. It counts as in vivo. As to conditions: one dosage per product, 5-100 mg/kg, see column 'Dosage mg/kg ip'.
In another data set the test system is male Wistar rat. The data set can be described thus: analgesic action, Randall and Selitto method (carrageenin-inflamed paw). In kind it is in vivo. The following applies: one dosage per product, 5-100 mg/kg, see column 'Dosage mg/kg ip'. On the technique in general: In the carrageenan paw model, swelling and tenderness develop within hours.
The subject of data set [3] is growing male Wistar rat. The data set can be described thus: antiinflammatory action, carrageenin-induced paw edema. In kind it is in vivo. As to conditions: one dosage per product, 5-100 mg/kg, see column 'Dosage mg/kg ip'.
The subject of a further data set is TXB2. Nature of the data set: generation of TXB2 on whole blood after stimulation with collagen. It counts as cell-based. The following applies: collagen 1 μg/ml. The method, then:
(§6) Inhibition of platelet aggregation was evaluated in vitro according to the Born method with various inducers (arachidonic acid, adrenalin, collagen) using as the substrate human plasma from healthy donors. For some new compounds the generation of thromboxane B2 and 6-keto-PGF according to the De Fryen method was evaluated. Platelet aggregation was studied in two successive periods: immediately after addition of the derivative and after 15 minutes of incubation at 37°C.
The results obtained on the generation of TXB2 and 6-Keto-PGF evaluated to determine preliminarily the level of interaction on the biochemical. mechanisms underlying increased platelet reactivity are given in Table X.

A further data set has as its system platelet aggregation. Nature of the data set: platelet aggregation in vitro according to Born, inducer arachidonic acid. In kind it is cell-based, human. As to conditions: inducer 1 mM arachidonic acid. Here is the method:
as §6
On some of the compounds which are the object of the present invention differentiated independently of the magnitude of the antiinflamatory, analgesic and antipyretic effect, preliminary tests in vitro were performed under the experimental conditions set forth above for the purpose of evaluating their effect on platelet reactivity.

Data set [4] can be described thus: haematic and urine rates after oral treatment (HPLC). The following applies: rat, 50 mg/kg os. It counts as in vivo. Here is the method: To preliminarily complete the pharmacological profile of the new series of compounds which are the object of the present invention and making reference to compound 8 a pharmacological test was performed in the rat and a subacute toxicity test was performed in the same animal species. Determination was performed with HPLC of the content in biological liquids.

Take `O=C(O)CCON=C(c1ccccc1)c1ccccc1` [compound 7]: in the data set with growing Swiss mouse, the Symptomatology result is given as “passivity”. In [1], this compound had an LD50 at 240 h of 300 mg/kg.

With `O=C(O)CCO/N=C\c1ccccc1` [compound 23], the Symptomatology entry in the data set with growing Swiss mouse was “passivity”. Further, in data set [1], the 50% lethal dose (LD50) at 10 days worked out at 510 mg/kg. The “influence on cellular proliferation” value with Fibrosarcoma 3T3-B77 and in the data set with MELANOMA B16-Fl cells was “significant influence on cellular proliferation” in each case.

Consider `CC(CO/N=C/c1ccccc1)C(=O)O` (stereo not drawn) [compound 24], for which the “Antipyretic action (maximum % response in first 4 hours)” value in the data set on growing male Wistar rat [2] amounted to 40%. Further, in the data set with growing Swiss mouse, the Symptomatology entry is given as “passivity”. Also, in data set [1], the LD50 at 240 h stood at 750 mg/kg. For the same compound, the “influence on cellular proliferation” value with Fibrosarcoma 3T3-B77 and in the data set with MELANOMA B16-Fl cells was “significant influence on cellular proliferation” each time. For the same compound, the “Analgesic action (maximum % response in first 4 hours)” value in the data set on male Wistar rat amounted to 46%. In addition, the “Antiinflammatory action (maximum % response in first 4 hours)” value in the data set on growing male Wistar rat [3] is reported as 35%.

With `CC(C)=NOCCC(=O)O` [compound 3], the Symptomatology result with growing Swiss mouse is on record as “passivity”. The LD50 at 240 h in [1] amounted to 300 mg/kg.

Consider `COc1ccc(C(C)=NOCCC(=O)O)cc1` [compound 12], for which, in the data set on growing Swiss mouse, the Symptomatology result is “passivity”. The compound also displayed an LD50 at 240 h in [1] of 850 mg/kg.

Turning to `O=C(O)CCON=C1c2ccccc2-c2ccccc21` [compound 13], the Symptomatology result in the data set on growing Swiss mouse is “passivity”. The LD50 at 240 h in data set [1] is 250 mg/kg. The “influence on cellular proliferation” value in the data set on Fibrosarcoma 3T3-B77 and in the data set with MELANOMA B16-Fl cells was “significant influence on cellular proliferation” throughout.

For the compound `O=C(O)CCO/N=C/c1ccc2c(c1)OCO2` [compound 21], the Symptomatology entry in the data set with growing Swiss mouse is on record as “passivity”. The compound also had an LD50 at 240 h in [1] of 525 mg/kg.

As for `O=C(O)CCON=Cc1cccc(Cl)c1` [compound 18], the Symptomatology entry in the data set with growing Swiss mouse was “passivity”. Besides, in data set [1], the 50% lethal dose (LD50) at 240 h came out at 325 mg/kg.

Take `CC(=NOCCC(=O)O)c1ccccc1` [compound 6]: the Symptomatology entry with growing Swiss mouse is given as “passivity”. In addition, the LD50 at 240 h in [1] came to 600 mg/kg.

With `CCC(CO/N=C/c1ccccc1)C(=O)O` (stereo not drawn) [compound 25], in the data set with growing male Wistar rat [2], the “Antipyretic action (maximum % response in first 4 hours)” value was 35%. For the same compound, the Symptomatology entry in the data set on growing Swiss mouse is recorded as “passivity”. In data set [1], this compound showed an LD50 at 240 h of 800 mg/kg. Besides, the “influence on cellular proliferation” value with Fibrosarcoma 3T3-B77 and in the data set with MELANOMA B16-Fl cells was “significant influence on cellular proliferation” throughout. For the same compound, the “Analgesic action (maximum % response in first 4 hours)” value in the data set on male Wistar rat is 40%. Further, the “Antiinflammatory action (maximum % response in first 4 hours)” value in the data set on growing male Wistar rat [3] was 35%.

For the compound `O=C(O)CCON=C1CCCCC1` [compound 2], in the data set on growing Swiss mouse, the Symptomatology entry is recorded as “agitation”. Further, the LD50 at 240 h in [1] came to 50 mg/kg. Moreover, the “influence on cellular proliferation” value in the data set on Fibrosarcoma 3T3-B77 and with MELANOMA B16-Fl cells was “significant influence on cellular proliferation” throughout.

On to `O=C(O)CCON=Cc1ccc(Cl)cc1` [compound 14], for which, in the data set on growing Swiss mouse, the Symptomatology result is “passivity”. This compound returned an LD50 at 240 h in data set [1] of 350 mg/kg.

With `CC(=NOCCC(=O)O)c1ccc(Cl)cc1` [compound 11], the Symptomatology result in the data set on growing Swiss mouse is on record as “agitation”. The same compound gave an LD50 at 240 h in data set [1] of 250 mg/kg.

As to `O=C(O)CCON=Cc1ccco1` [compound 15], the Symptomatology entry in the data set on growing Swiss mouse is “negligible”. The compound further yielded an LD50 at 240 h in data set [1] of 1500 mg/kg.

Turning to `O=C(O)CCO/N=C/c1ccccc1` [compound 8], the “Generation of TXB2” value with TXB2 (5.10^-4 M, 5 min, control 41.2) is 11.7 (41.2) μg/ml; in the data set on TXB2 (5.10^-4 M, 15 min, control 26.5), 8.6 (26.5) μg/ml; in the data set on TXB2 (5.10^-4 M, 30 min, control 36.5), 8.5 (36.5) μg/ml; in the data set with TXB2 (5.10^-4 M, 60 min, control 65.8) it was 15.1 (65.8) μg/ml; in the data set on TXB2 (5.10^-5 M, 5 min, control 41.2), 54.3 (41.2) μg/ml; with TXB2 (5.10^-5 M, 15 min, control 26.5), 37.5 (26.5) μg/ml. Besides, the “Generation of TXB2” value in the data set with TXB2 (5.10^-5 M, 30 min, control 36.5) is reported as 41.4 (36.5) μg/ml; in the data set with TXB2 (5.10^-5 M, 60 min, control 65.8), 68 (65.8) μg/ml. The “Percentage response variation AM” value with platelet aggregation (5.10^-4 M) is -32.3%; with platelet aggregation (5.10^-5 M), -1.5%. Besides, the “Percentage response variation Lagt” value in the data set with platelet aggregation (5.10^-4 M) is reported as “+114.3%”; in the data set on platelet aggregation (5.10^-5 M), “+10.7%”. Further, the Symptomatology result in the data set with growing Swiss mouse was “passivity”. The compound further showed an LD50 at 10 days in [1] of 600 mg/kg. Also, the “influence on cellular proliferation” value with Fibrosarcoma 3T3-B77 and in the data set on MELANOMA B16-Fl cells was “significant influence on cellular proliferation” in each case. In data set [4] (plasma, 1 hour), this compound had a concentration at 1 h of 180 µg/mL. This compound showed a concentration at 2 h in data set [4] (plasma, 2 hours) of 145 µg/mL. The same compound yielded a concentration at 3 h in [4] (plasma, 3 hours) of 142 µg/mL. Besides, in [4] (plasma, 4 hours), the concentration at 4 h was found to be 141 µg/mL. Moreover, in [4] (plasma, 6 hours), the concentration at 6 h came to 140 µg/mL. The concentration at 24 h amounted to 90 µg/mL in data set [4] (plasma, read-out: Plasma) and 80 µg/mL in data set [4] (urine, read-out: Urine). Besides, the concentration at 48 h in [4] (plasma, read-out: Plasma) was 53 µg/mL; in [4] (urine, read-out: Urine) it was 17 µg/mL. In data set [4] (urine, 8 hours), this compound returned a concentration at 8 h of 30 µg/mL.

As to `COc1ccc(OC)c(C=NOCCC(=O)O)c1` [compound 16], in the data set on platelet aggregation (5.10^-4 M), the “Percentage response variation AM” value is on record as -13.3% and the “Percentage response variation Lagt” value is given as “+28.0%”. In addition, in the data set with platelet aggregation (5.10^-5 M), the “Percentage response variation AM” value is -16.1% and the “Percentage response variation Lagt” value is recorded as -8.0%. In addition, in the data set with growing Swiss mouse, the Symptomatology result is given as “passivity”. This compound returned an LD50 at 240 h in [1] of 600 mg/kg.

Turning to `O=C(O)CCO/N=C/c1cccs1` [compound 22], in the data set with platelet aggregation (5.10^-4 M), the “Percentage response variation AM” value is on record as “+80.5%” and the “Percentage response variation Lagt” value is reported as “+276.0%”. For the same compound, in the data set on platelet aggregation (5.10^-5 M), the “Percentage response variation AM” value is given as “+38.3%” and the “Percentage response variation Lagt” value is “+12.0%”. Further, the Symptomatology result in the data set on growing Swiss mouse is “passivity”. The LD50 at 240 h in data set [1] worked out at 1800 mg/kg.

In the case of `O=C(O)CCON=Cc1ccccc1Cl` [compound 17], in the data set with platelet aggregation (5.10^-4 M), the “Percentage response variation AM” value is listed as -79.8% and the “Percentage response variation Lagt” value is “+273.9%”. In addition, in the data set on platelet aggregation (5.10^-5 M), the “Percentage response variation AM” value is listed as -33.3% and the “Percentage response variation Lagt” value was “+60.0%”. For the same compound, in the data set with growing Swiss mouse, the Symptomatology result was “passivity”. Also, the LD50 at 240 h in data set [1] is 400 mg/kg.

For `CCCC(CCC)=NOCCC(=O)O` [compound 4], the Symptomatology result in the data set on growing Swiss mouse is recorded as “passivity”. Also, the LD50 at 240 h in [1] was 450 mg/kg.

With `CC(C)C(=NOCCC(=O)O)C(C)C` [compound 5], the Symptomatology result in the data set on growing Swiss mouse is “agitation”. The LD50 at 10 days in data set [1] amounted to 400 mg/kg.

In the case of `O=C(O)CCON=C1CCCC1` [compound 1], the Symptomatology entry in the data set with growing Swiss mouse is “agitation”. Moreover, in data set [1], the LD50 at 240 h was found to be 200 mg/kg. In addition, the “influence on cellular proliferation” value with Fibrosarcoma 3T3-B77 and in the data set on MELANOMA B16-Fl cells was “significant influence on cellular proliferation” throughout.
